Measured values taken from patent US12441679B2, “Acrylamide-substituted indane compounds and therapeutic use thereof” (Sanofi, priority 2020, dated 2025).

The compounds below were run on YAP1-TEAD and TAZ-TEAD activity (TEAD responsive promoter element) (assay: TEAD-Luciferase Reporter Assay (8XGTIIC-Luciferase construct stably integrated in tumor cell lines)). Details: 8XGTIIC-Luciferase reporter in tumor cell lines, 48 hrs compound treatment, 10 doses 1-10000 nM.
Format: cell-based, human
Text: TEAD-Luciferase Reporter Assay
Luciferase-based gene reporter assays were used, employing the TEAD responsive promoter element that are stably integrated to different human tumor cell lines in order to monitor YAP1-TEAD and TAZ-TEAD activity and to study YAP1/TAZ-TEAD activity modulation by small molecule compounds. Luciferase-based gene reporter assays employing the GAPDH promoter element and stably integrated to different human tumor cell lines are used as counter screen control cell lines.
Tumor cell lines with stable integration of the 8XGTIIC-Luciferase construct (Dupont et al., Nature 2011) or the GAPDH-Luciferase control plasmid, are seeded in culture medium in 96-well plates at a density of 8000 cells/well. Following an overnight incubation in a 37° C., 5% CO2 growth chamber, cells are treated with compounds described above at 10 doses ranging between 1 and 10000 nM for 48 hrs. After compound incubation, cells are lysed with Bright-Glo Luciferase Assay System (Promega E2620) and luciferase activity is measured using a luminescent plate reader.
The inhibitory activity of the compounds with respect to luciferase activity is given by the concentration which inhibits 50% of activity of non-treated cells. IC50s are determined with a nonlinear regression model on XLfit software analysis (IDBS, UK).

Compound	IC50 [nM]
C=CC(=O)Nc1ccc2c(c1)CCC2Nc1cccc(S(F)(F)(F)(F)F)c1 (stereo not shown) [Example 54, N-(1-((3-(pentafluoro-I6-sulfanyl)phenyl)amino)-2,3-dihydro-1H-inden-5-yl)acrylamide]	388
(S)—N-(1-((4-fluorophenyl)amino)-2,3-dihydro-1H-inden-5-yl)acrylamide [Example 6]	31

Same assay, conditions: Homo sapiens; 8XGTIIC-Luciferase reporter in tumor cell lines, 48 hrs compound treatment, 10 doses 1-10000 nM

Compound	IC50 [nM]
C=CC(=O)Nc1ccc2c(c1)C[C@H](Nc1cccc(F)c1)C2 (single isomer, unassigned) [Example 49]	105
C=CC(=O)Nc1ccc2c(c1)CCC2Nc1ccc(C(F)(F)F)nc1 (stereo not shown) [Example 20, N-(1-((6-(trifluoromethyl)pyridin-3-yl)amino)-2,3-dihydro-1H-inden-5-yl)acrylamide]	358
C=CC(=O)Nc1ccc2c(c1)C(C)(C)CC2Nc1cccc(C(F)(F)F)c1 (stereo not shown) [Example 65, N-(3,3-dimethyl-1-((3-(trifluoromethyl)phenyl)amino)-2,3-dihydro-1H-inden-5-yl)acrylamide]	1850
C=CC(=O)Nc1ccc2c(c1)C(NC1CCC(F)(F)CC1)CC2 (stereo not shown) [Example 70, N-(3-((4,4-difluorocyclohexyl)amino)-2,3-dihydro-1H-inden-5-yl)acrylamide]	5260
C=CC(=O)Nc1ccc2c(c1)C(O[C@H]1CC[C@H](C(F)(F)F)CC1)CC2 (relative stereo) [Example 36, N-(3-(((trans)-4-(trifluoromethyl)cyclohexyl)oxy)-2,3-dihydro-1H-inden-5-yl)acrylamide]	99
C=CC(=O)Nc1ccc2c(c1)C(Oc1ccc(C(F)(F)F)cc1)C(F)C2 (stereo not shown) [Example 92, N-[2-fluoro-3-[4-(trifluoromethyl)phenoxy]-2,3-dihydro-1H-inden-5-yl]acrylamide]	95
C=CC(=O)Nc1ccc2c(c1)C(OC1CCC(C(F)(F)F)C1)CC2 (stereo not shown) [Example 71, N-(3-((3-(trifluoromethyl)cyclopentyl)oxy)-2,3-dihydro-1H-inden-5-yl)acrylamide]	820
C=CC(=O)Nc1ccc2c(c1)C(Oc1ccc(F)c(F)c1)CC2 (stereo not shown) [Example 40, N-(3-(3,4-difluorophenoxy)-2,3-dihydro-1H-inden-5-yl)acrylamide]	15
C=CC(=O)Nc1ccc2c(c1)C(Oc1ccccc1)CC2 (stereo not shown) [Example 38, N-(3-phenoxy-2,3-dihydro-1H-inden-5-yl)acrylamide]	74
C=CC(=O)Nc1ccc2c(c1)C(Nc1ccc(F)c(F)c1)CC2 (stereo not shown) [Example 13, N-(3-((3,4-difluorophenyl)amino)-2,3-dihydro-1H-inden-5-yl)acrylamide]	37
C=CC(=O)Nc1ccc2c(c1)CC(NC1CCC(F)(F)CC1)C2 (stereo not shown) [Example 28, N-(2-((4,4-difluorocyclohexyl)amino)-2,3-dihydro-1H-inden-5-yl)acrylamide]	4020
C=CC(=O)Nc1ccc2c(c1)C[C@@H](Nc1cccc(C(F)(F)F)c1)C2 (single isomer, unassigned) [Example 51]	4330
C=CC(=O)Nc1ccc2c(c1)CCC2Oc1cccc(OC(F)(F)F)c1 (stereo not shown) [Example 46, N-(1-(3-(trifluoromethoxy)phenoxy)-2,3-dihydro-1H-inden-5-yl)acrylamide]	4560
C=CC(=O)Nc1ccc2c(c1)CCC2Nc1cccc(C(F)(F)F)c1 (stereo not shown) [Example 1, N-(1-((3-(trifluoromethyl)phenyl)amino)-2,3-dihydro-1H-inden-5-yl)acrylamide]	72
C=CC(=O)N(C)c1ccc2c(c1)CCC2Oc1ccc(C(F)(F)F)cc1 (stereo not shown) [Example 83, N-methyl-N-(1-(4-(trifluoromethyl)phenoxy)-2,3-dihydro-1H-inden-5-yl)acrylamide]	109
C=CC(=O)Nc1ccc2c(c1)[C@@H](OC)C[C@H]2Nc1cccc(C(F)(F)F)c1 (relative stereo) [Example 94, N-[(cis)-3-methoxy-1-[3-(trifluoromethyl)anilino]-2,3-dihydro-1H-inden-5-yl]acrylamide]	395
C=CC(=O)Nc1ccc2c(c1)C(Oc1cccc(F)c1)CC2 (stereo not shown) [Example 41, N-(3-(3-fluorophenoxy)-2,3-dihydro-1H-inden-5-yl)acrylamide]	87
C=CC(=O)Nc1ccc2c(c1)CCC2NCc1ccc(C(F)(F)F)cc1 (stereo not shown) [Example 25, N-(1-((4-(trifluoromethyl)benzyl)amino)-2,3-dihydro-1H-inden-5-yl)acrylamide]	8240
C=CC(=O)Nc1ccc2c(c1)CCC2Oc1cccc(C(F)(F)F)c1 (stereo not shown) [Example 45, N-(1-(3-(trifluoromethyl)phenoxy)-2,3-dihydro-1H-inden-5-yl)acrylamide]	12
C=CC(=O)Nc1ccc2c(c1)CC[C@H]2Nc1ccc(F)cc1 [Example 7, (R)—N-(1-((4-fluorophenyl)amino)-2,3-dihydro-1H-inden-5-yl)acrylamide]	28
C=CC(=O)Nc1ccc2c(c1)CC(NCCCF)C2 (stereo not shown) [Example 30, N-(2-((3-fluoropropyl)amino)-2,3-dihydro-1H-inden-5-yl)acrylamide]	> 10000

Compound	IC50 [nM]
C=CC(=O)Nc1ccc2c(c1)C(OCCC(F)(F)F)CC2 (stereo not shown) [Example 75, N-(3-(3,3,3-trifluoropropoxy)-2,3-dihydro-1H-inden-5-yl)acrylamide]	4720
C=CC(=O)Nc1ccc2c(c1)C(OC1CCC(F)(F)CC1)CC2 (stereo not shown) [Example 35, N-(3-((4,4-difluorocyclohexyl)oxy)-2,3-dihydro-1H-inden-5-yl)acrylamide]	583
C=CC(=O)Nc1ccc2c(c1)C(Nc1ccc(C(F)(F)F)cc1)CC2 (stereo not shown) [Example 12, N-(3-((4-(trifluoromethyl)phenyl)amino)-2,3-dihydro-1H-inden-5-yl)acrylamide]	55
C=CC(=O)Nc1ccc2c(c1)CCC2Nc1cccc(C)c1 (stereo not shown) [Example 18, N-(1-(m-tolylamino)-2,3-dihydro-1H-inden-5-yl)acrylamide]	213
C=CC(=O)Nc1ccc2c(c1)C(OCC(F)(F)F)CC2 (stereo not shown) [Example 74, N-(3-(2,2,2-trifluoroethoxy)-2,3-dihydro-1H-inden-5-yl)acrylamide]	3690
C=CC(=O)Nc1ccc2c(c1)C(OCCCCC(F)(F)F)CC2 (stereo not shown) [Example 72, N-(3-((5,5,5-trifluoropentyl)oxy)-2,3-dihydro-1H-inden-5-yl)acrylamide]	861
C=CC(=O)N(C)c1ccc2c(c1)CC(C)C2Nc1cccc(C(F)(F)F)c1 (stereo not shown) [Example 93, N-methyl-N-(2-methyl-1-((3-(trifluoromethyl)phenyl)amino)-2,3-dihydro-1H-inden-5-yl)acrylamide]	513
C=CC(=O)Nc1ccc2c(c1)CCC2Nc1ccc(F)c(F)c1 (stereo not shown) [Example 16, N-(1-((3,4-difluorophenyl)amino)-2,3-dihydro-1H-inden-5-yl)acrylamide]	38
C=CC(=O)Nc1ccc2c(c1)C(Oc1cccc(C(F)(F)F)c1)CC2 (stereo not shown) [Example 39, N-(3-(3-(trifluoromethyl)phenoxy)-2,3-dihydro-1H-inden-5-yl)acrylamide]	53
C=CC(=O)Nc1ccc2c(c1)C[C@H](Nc1cccc(C(F)(F)F)c1)C2 (single isomer, unassigned) [Example 50]	76
C=CC(=O)Nc1ccc2c(c1F)CCC2Nc1ccc(C(F)(F)F)cc1 (stereo not shown) [Example 68, N-[4-fluoro-1-[4-(trifluoromethyl)anilino]-2,3-dihydro-1H-inden-5-yl]acrylamide]	290
C=CC(=O)Nc1ccc2c(c1)CCC2Nc1cccc(F)c1 (stereo not shown) [Example 8, N-(1-((3-fluorophenyl)amino)-2,3-dihydro-1H-inden-5-yl)acrylamide]	132
C=CC(=O)Nc1ccc2c(c1)C[C@@H](O)[C@@H]2Nc1cccc(C(F)(F)F)c1 (relative stereo) [Example 95, N-[(trans)-2-hydroxy-1-[3-(trifluoromethyl)anilino]-2,3-dihydro-1H-inden-5-yl]acrylamide]	653
C=CC(=O)Nc1ccc2c(c1)CCC2N(C)c1ccccc1 (stereo not shown) [Example 63, N-(1-(methyl(phenyl)amino)-2,3-dihydro-1H-inden-5-yl)acrylamide]	144
C=CC(=O)Nc1ccc2c(c1)C(Nc1cc(F)cc(F)c1)CC2 (stereo not shown) [Example 53, N-(3-((3,5-difluorophenyl)amino)-2,3-dihydro-1H-inden-5-yl)acrylamide]	57
C=CC(=O)Nc1ccc2c(c1)C(Oc1ccc(F)cc1)CC2 (stereo not shown) [Example 42, N-(3-(4-fluorophenoxy)-2,3-dihydro-1H-inden-5-yl)acrylamide]	29
C=CC(=O)Nc1ccc2c(c1)CCC2Nc1cncc(C(F)(F)F)c1 (stereo not shown) [Example 61, N-(1-((5-(trifluoromethyl)pyridin-3-yl)amino)-2,3-dihydro-1H-inden-5-yl)acrylamide]	178
C=CC(=O)Nc1ccc2c(c1)CC(Nc1ccc(C(F)(F)F)cc1)C2 (stereo not shown) [Example 52, N-[2-[4-(trifluoromethyl)anilino]-2,3-dihydro-1H-inden-5-yl]acrylamide]	2820
C=CC(=O)Nc1ccc2c(c1)CC[C@@H]2Oc1cccc(C(F)(F)F)c1 (single isomer, unassigned) [Example 84]	153
C=CC(=O)Nc1ccc2c(c1)CC(Nc1cccc(F)c1)C2 (stereo not shown) [Example 31, N-(2-((3-fluorophenyl)amino)-2,3-dihydro-1H-inden-5-yl)acrylamide]	20
